According to patent publication US20230017045A1, “PYRIDINE AND PYRIMIDINE CARBOXYLATE HERBICIDES AND METHODS OF USE THEREOF” (Dow AgroSciences LLC, priority 2017, published 2023):
Read-outs that look alike come from different tables or passages of the source.

Test system: test plant species
Test: Post-emergent herbicidal activity test (greenhouse, foliar spray, visual growth reduction)
Type: in vivo
Details: 140 g ai/ha; for pest or weed control at 140 g/ha: post-emergence, 336 h
In short: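 Greenhouse plants at first–second true leaf stage sprayed overhead at 187 L/ha with compound in acetone/water/isopropanol/DMSO/crop oil/X-77 carrier; controls received solvent blank. Injury rated visually after 14 d on a 0–100% scale versus untreated and control plants, converted to growth reduction.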

[1] = ALOMY: blackgrass (Alopecurus myosuroides), 14 days after application, read-out: Visual Growth Reduction (%) 14 Days After Application, ALOMY
[2] = AMARE: redroot pigweed (Amaranthus retroflexus), 14 days after application, read-out: Visual Growth Reduction (%) 14 Days After Application, AMARE
[3] = AVEFA: wild oat (Avena fatua), 14 days after application, read-out: Visual Growth Reduction (%) 14 Days After Application, AVEFA
[4] = CHEAL: lambsquarters (Chenopodium album), 14 days after application, read-out: Visual Growth Reduction (%) 14 Days After Application, CHEAL
[5] = CIRAR: canada thistle (Cirsium arvense), 14 days after application, read-out: Visual Growth Reduction (%) 14 Days After Application, CIRAR
[6] = CYPES: yellow nutsedge (Cyperus esculentus), 14 days after application, read-out: Visual Growth Reduction (%) 14 Days After Application, CYPES
[7] = DIGSA: crabgrass (Digitaria sanguinalis), 14 days after application, read-out: Visual Growth Reduction (%) 14 Days After Application, DIGSA
[8] = ECHCG: barnyardgrass (Echinochloa crus-galli), 14 days after application, read-out: Visual Growth Reduction (%) 14 Days After Application, ECHCG
[9] = IPOHE: ivy-leaf morning glory (Ipomoea hederacea), 14 days after application, read-out: Visual Growth Reduction (%) 14 Days After Application, IPOHE
[10] = KCHSC: kochia (Bassia scoparia), 14 days after application, read-out: Visual Growth Reduction (%) 14 Days After Application, KCHSC
[11] = ORYSA: rice (Oryza sativa), 14 days after application, read-out: Visual Growth Reduction (%) 14 Days After Application, ORYSA
[12] = SETFA: giant foxtail (Setaria faberi), 14 days after application, read-out: Visual Growth Reduction (%) 14 Days After Application, SETFA
[13] = SORVU: grain sorghum (Sorghum vulgare), 14 days after application, read-out: Visual Growth Reduction (%) 14 Days After Application, SORVU
[14] = STEME: common chickweed (Stellaria media), 14 days after application, read-out: Visual Growth Reduction (%) 14 Days After Application, STEME
[15] = TRZAS: wheat, spring (Triticum aestivum), 14 days after application, read-out: Visual Growth Reduction (%) 14 Days After Application, TRZAS
[16] = blackgrass (Alopecurus myosuroides), 14 Days After Application, read-out: Visual Growth Reduction (%) ALOMY
[17] = canada thistle (Cirsium arvense), 14 Days After Application, read-out: Visual Growth Reduction (%) CIRAR
[18] = crabgrass (Digitaria sanguinalis), 14 Days After Application, read-out: Visual Growth Reduction (%) DIGSA
[19] = lambsquarters (Chenopodium album), 14 Days After Application, read-out: Visual Growth Reduction (%) CHEAL
[20] = redroot pigweed (Amaranthus retroflexus), 14 Days After Application, read-out: Visual Growth Reduction (%) AMARE
[21] = wild oat (Avena fatua), 14 Days After Application, read-out: Visual Growth Reduction (%) AVEFA
[22] = yellow nutsedge (Cyperus esculentus), 14 Days After Application, read-out: Visual Growth Reduction (%) CYPES

| SMILES | pest or weed control at 140 g/ha [8] [%] | pest or weed control at 140 g/ha [9] [%] | pest or weed control at 140 g/ha [10] [%] | pest or weed control at 140 g/ha [11] [%] | pest or weed control at 140 g/ha [12] [%] | pest or weed control at 140 g/ha [13] [%] | pest or weed control at 140 g/ha [14] [%] | pest or weed control at 140 g/ha [15] [%] | pest or weed control at 140 g/ha [16] [%] | pest or weed control at 140 g/ha [17] [%] | pest or weed control at 140 g/ha [18] [%] | pest or weed control at 140 g/ha [19] [%] | pest or weed control at 140 g/ha [20] [%] | pest or weed control at 140 g/ha [21] [%] | pest or weed control at 140 g/ha [22] [%] | further results |
| --- | --- | --- | --- | --- | --- | --- | --- | --- | --- | --- | --- | --- | --- | --- | --- | --- |
| COC(=O)c1nc(-c2ccc([N+](=O)[O-])cc2)c(F)cc1Cl [F197, Methyl 3-chloro-5-fluoro-6-(4-nitrophenyl) picolinate] |  |  |  |  |  |  |  |  |  |  |  |  |  |  |  | Visual Growth Reduction (%) 14 Days After Application, ALOMY (ALOMY: blackgrass (Alopecurus myosuroides), 14 days after application): G (0-29); Visual Growth Reduction (%) 14 Days After Application, AMARE (AMARE: redroot pigweed (Amaranthus retroflexus), 14 days after application): G (0-29); Visual Growth Reduction (%) 14 Days After Application, AVEFA (AVEFA: wild oat (Avena fatua), 14 days after application): G (0-29); Visual Growth Reduction (%) 14 Days After Application, CHEAL (CHEAL: lambsquarters (Chenopodium album), 14 days after application): E (45-59); Visual Growth Reduction (%) 14 Days After Application, CIRAR (CIRAR: canada thistle (Cirsium arvense), 14 days after application): G (0-29); Visual Growth Reduction (%) 14 Days After Application, CYPES (CYPES: yellow nutsedge (Cyperus esculentus), 14 days after application): G (0-29); Visual Growth Reduction (%) 14 Days After Application, DIGSA (DIGSA: crabgrass (Digitaria sanguinalis), 14 days after application): F (30-44); Visual Growth Reduction (%) 14 Days After Application, ECHCG (ECHCG: barnyardgrass (Echinochloa crus-galli), 14 days after application): G (0-29); Visual Growth Reduction (%) 14 Days After Application, IPOHE (IPOHE: ivy-leaf morning glory (Ipomoea hederacea), 14 days after application): D (60-74); Visual Growth Reduction (%) 14 Days After Application, KCHSC (KCHSC: kochia (Bassia scoparia), 14 days after application): G (0-29); Visual Growth Reduction (%) 14 Days After Application, ORYSA (ORYSA: rice (Oryza sativa), 14 days after application): G (0-29); Visual Growth Reduction (%) 14 Days After Application, SETFA (SETFA: giant foxtail (Setaria faberi), 14 days after application): G (0-29); Visual Growth Reduction (%) 14 Days After Application, SORVU (SORVU: johnsongrass (Sorghum vulgare), 14 days after application): F (30-44); Visual Growth Reduction (%) 14 Days After Application, STEME (STEME: common chickweed (Stellaria media), 14 days after application): G (0-29); Visual Growth Reduction (%) 14 Days After Application, TRZAS (TRZAS: wheat, spring (Triticum aestivum), 14 days after application): G (0-29) |
| O=C(O)c1nc(-c2ccc3occc3c2)c(F)cc1Cl [F198, 6-(Benzofuran-5-yl)-3-chloro-5-fluoropicolinic acid] | 0 to 29 | 60 to 74 | 0 to 29 | 0 to 29 | 0 to 29 | 0 to 29 | 0 to 29 | 0 to 29 |  |  |  |  |  |  |  | pest or weed control at 140 g/ha [1]: 0 to 29%; pest or weed control at 140 g/ha [2]: 0 to 29%; pest or weed control at 140 g/ha [3]: 0 to 29%; pest or weed control at 140 g/ha [4]: 0 to 29%; pest or weed control at 140 g/ha [5]: 0 to 29%; pest or weed control at 140 g/ha [6]: 0 to 29%; pest or weed control at 140 g/ha [7]: 0 to 29% |
| O=C(O)c1nc(-c2ccc3[nH]ccc3c2)c(F)cc1Cl [F199, 3-Chloro-5-fluoro-6-(1H-indol-5-yl)picolinic acid] | 0 to 29 | 0 to 29 | 0 to 29 | 0 to 29 | 0 to 29 | 0 to 29 | 0 to 29 | 0 to 29 |  |  |  |  |  |  |  | pest or weed control at 140 g/ha [1]: 0 to 29%; pest or weed control at 140 g/ha [2]: 0 to 29%; pest or weed control at 140 g/ha [3]: 0 to 29%; pest or weed control at 140 g/ha [4]: 30 to 44%; pest or weed control at 140 g/ha [5]: 0 to 29%; pest or weed control at 140 g/ha [6]: 0 to 29%; pest or weed control at 140 g/ha [7]: 0 to 29% |
| COC(=O)c1nc(-c2ccc(OC(F)F)cc2Cl)c(F)cc1Cl [F200, Methyl 3-chloro-6-(2-chloro-4-(difluoromethoxy)phenyl)-5-fluoropicolinate] | 75 to 84 | 95 to 100 | 95 to 100 | 0 to 29 | 85 to 94 | 95 to 100 | 30 to 44 | 75 to 84 | 45 to 59 | 95 to 100 | 95 to 100 | 95 to 100 | 95 to 100 | 60 to 74 | 0 to 29 |  |
| COC(=O)c1nc(-c2ccc(C(F)(F)F)cc2Cl)ccc1[N+](=O)[O-] [F201, Methyl 6-(2-chloro-4-(trifluoromethyl)phenyl)-3-nitropicolinate] | 0 to 29 | 0 to 29 | 0 to 29 | 0 to 29 | 0 to 29 | 0 to 29 | 0 to 29 | 0 to 29 | 0 to 29 | 0 to 29 | 0 to 29 | 0 to 29 | 45 to 59 | 0 to 29 | 0 to 29 |  |
| COC(=O)c1nc(-c2ccc3c(c2)C(F)(F)OC(F)(F)O3)c(Cl)cc1Cl [F202, Methyl 3,5-dichloro-6-(2,2,4,4-tetrafluoro-4H-benzo[d][1,3]dioxin-6-yl)picolinate] | 0 to 29 | 0 to 29 | 0 to 29 | 0 to 29 | 0 to 29 | 0 to 29 | 0 to 29 | 0 to 29 | 0 to 29 | 0 to 29 | 0 to 29 | 0 to 29 | 0 to 29 | 0 to 29 | 0 to 29 |  |
| COC(=O)c1nc(-c2ccc3c(c2)C(F)(F)OC(F)(F)O3)ccc1Cl [F203, Methyl 3-chloro-6-(2,2,4,4-tetrafluoro-4H-benzo[d][1,3]dioxin-6-yl) picolinate] | 0 to 29 | 30 to 44 | 0 to 29 | 0 to 29 | 0 to 29 | 0 to 29 | 0 to 29 | 0 to 29 | 0 to 29 | 0 to 29 | 0 to 29 | 0 to 29 | 0 to 29 | 0 to 29 | 0 to 29 |  |
| COC(=O)c1nc(-c2ccc3c(c2)C(F)(F)OC(F)(F)O3)c(F)cc1Cl [F204, Methyl 3-chloro-5-fluoro-6-(2,2,4,4-tetrafluoro-4H-benzo[d][1,3]dioxin-6-yl)picolinate] | 0 to 29 | 30 to 44 | 0 to 29 | 0 to 29 | 0 to 29 | 0 to 29 | 0 to 29 | 0 to 29 | 0 to 29 | 0 to 29 | 0 to 29 | 0 to 29 | 0 to 29 | 0 to 29 | 0 to 29 |  |
